Laboratory results reported in patent publication US20240383856A1 (Zedira GmbH, priority 2021, published 2024).
pIC50: −log10 of the molar value.

Assays:
[1] = target: T1, recombinant human transglutaminase 2 (Homo sapiens, UniProt P21980); experiment: Transglutaminase assay (DCC-assay): incorporation of dansylcadaverine into dimethylcasein; assay type: biochemical; settings: for pIC50: recombinant human TG2 10 nM, dansylcadaverine incorporation into dimethylcasein, read-out: IC50 TG2
T1 construct: purchased Zedira T022
T1 sequence (P21980 1-687): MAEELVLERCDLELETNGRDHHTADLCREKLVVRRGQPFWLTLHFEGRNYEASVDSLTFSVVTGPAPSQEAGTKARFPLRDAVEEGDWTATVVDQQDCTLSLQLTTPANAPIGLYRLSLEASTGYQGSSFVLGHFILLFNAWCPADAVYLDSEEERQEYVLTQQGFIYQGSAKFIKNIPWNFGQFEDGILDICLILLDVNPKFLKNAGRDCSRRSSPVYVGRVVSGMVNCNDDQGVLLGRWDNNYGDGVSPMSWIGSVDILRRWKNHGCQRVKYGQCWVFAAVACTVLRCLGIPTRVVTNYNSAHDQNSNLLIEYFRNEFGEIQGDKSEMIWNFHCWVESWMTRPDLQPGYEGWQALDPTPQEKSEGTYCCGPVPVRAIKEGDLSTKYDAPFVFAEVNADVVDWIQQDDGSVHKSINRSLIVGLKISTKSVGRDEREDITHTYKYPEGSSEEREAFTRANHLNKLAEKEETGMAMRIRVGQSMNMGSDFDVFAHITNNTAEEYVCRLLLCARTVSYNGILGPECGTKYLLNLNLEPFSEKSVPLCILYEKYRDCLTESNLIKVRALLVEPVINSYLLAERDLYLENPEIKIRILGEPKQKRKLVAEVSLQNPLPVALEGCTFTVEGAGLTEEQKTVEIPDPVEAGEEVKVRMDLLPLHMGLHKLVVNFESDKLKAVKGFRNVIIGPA
Procedure: To illustrate the advantage of branched alkyl moieties over aromatic moieties, we refer to reference compounds Ref. 2 (ZED1227, U.S. Pat. No. 9,434,763 B2) and Ref. 3 (A8, ZED1047). Inhibition data were determined using the classical fluorescent transamidation assay (dansylcadaverine incorporation into methylated casein, DCC-assay) as described [Buchold, C.; Hils, M.; Gerlach, U.; Weber, J.; Pelzer, C.; Heil, A.; Aeschlimann, D.; Pasternack, R. Features of ZED1227: The First-In-Class Tissue Transglutaminase Inhibitor Undergoing Clinical Evaluation for the Treatment of Celiac Disease. Cells 2022, 11, 1667. https://doi.org/10.3390/cells11101667]. Casein is one of the best known high molecular weight (24 kDa) protein substrates for transglutaminases. Please note, the IC50 value of Ref. 3 (A8) published in U.S. Pat. No. 9,434,763 B2 cannot be compared to the present data, relying on a fluorogenic isopeptidase assay.
To this extent, inhibition data were determined using the classical fluorescent transamidation assay (dansylcadaverine incorporation into methylated casein, DCC-assay) as described in Büchold et al. [Büchold, C.; Hils, M.; Gerlach, U.; Weber, J.; Pelzer, C.; Heil, A.; Aeschlimann, D.; Pasternack, R. Features of ZED1227: The First-In-Class Tissue Transglutaminase Inhibitor Undergoing Clinical Evaluation for the Treatment of Celiac Disease. Cells 2022, 11, 1667. https://doi.org/10.3390/cells11101667]. Casein is one of the best known high molecular weight (24 kDa) protein substrates for transglutaminases. Inhibition data of the inventive compounds was compared with inhibition of compounds disclosed in U.S. Pat. No. 9,434,763 B2, particularly, compound A8, which is denoted herein as Reference 3. It is noteworthy that the IC50 values of compounds A8 published in U.S. Pat. No. 9,434,763 B2 and E16 from U.S. Pat. No. 11,072,634 B2 cannot be compared to the present data, relying on a fluorogenic isopeptidase assay.
For the determination of potency of inhibitors against tissue transglutaminase, the incorporation of dansylcadaverine into dimethylcasein (Zedira product T036, Lorand et al., Anal Biochem, 1971, 44:221-31) was measured using recombinant human transglutaminase 2 (Zedira Product T022).
The tissue transglutaminase is diluted in buffer (50 mM Tris-HCl, 7.5 mM CaCl2), 150 mM NaCl, pH=7.4). The final concentration of TG2 in the assay is 10 nM.
A 10 mM inhibitor stock solution is prepared in DMSO, and from this a serial 1:2-fold dilution series is prepared also in DMSO. Each of the initial dilutions is subsequently diluted 1:50-fold with buffer (50 mM Tris-HCl, 7.5 mM CaCl2), 150 mM NaCl, pH=7.4) to yield the final working dilutions containing 2% (v/v) DMSO.
15 μl of inhibitor working dilution are added per well of a 96 well microtiter plate. As control, 15 μl of a 2% (v/v) DMSO solution prepared using the buffer mentioned above are added per well.
Immediately before starting the assay, 600 μl transglutaminase working solution are added to 11.4 ml assay buffer (50 mM Tris-HCl, 10 mM CaCl2), 10 mM glutathione, 2.5% glycerol, 16.7 µM dansylcadaverine, 4 uM N,N-dimethylcasein, 200 mM NaCl, pH=8.0). 285 μl of this reaction mix are added per well containing the inhibitor.
Increase in fluorescence is measured using λex=330 nm and λem=500 nm at 37° C. for 30 min. A slope of the increase in fluorescence between 20 and 30 min is calculated for determination of the IC50 value (inhibitor concentration at which 50% of the initial activity is blocked).
Analysis of enzymatic activity is performed by calculation of the slope of an increase in fluorescence intensity. IC50 values are calculated by plotting the enzymatic activity (as percentage from control containing 2% DMSO instead of inhibitor) against the inhibitor concentration. IC50 is defined as the inhibitor concentration blocking 50% of initial enzyme activity.

[2] = logD by shake flask method (octanol / PBS pH 7.4, HPLC); assay type: physicochemical; settings: octanol / PBS pH 7.4, shake flask
Procedure: In order to classify the inventive compounds according to their lipophilicity, LogD values (distribution coefficient) were determined by means of the well-established shake flask method, measuring the partition of a compound between an octanol and phosphate-buffered saline (PBS, pH 7.4) by HPLC.
The LogD is pH dependent and is a “predictor” for in-vivo properties. LogD combines lipophilicity (intrinsic structural property of the molecule, logP) and ionizability (pKa). Compounds with a moderate lipophilicity (LogD values from 0 to 3) are usually advantaged for oral absorption, being in balance between solubility and permeability. However, sophisticated formulation of a compound might improve oral bioavailability for highly lipophilic compounds.

[3] = Caco-2 permeability assay (CacoReady kit); assay type: in vitro ADME; settings: human, Caco-2, Caco-2 barrier, CacoReady kit; above 1×10^−6 cm/s classified as permeable
Procedure: Permeability coefficients (Papp values) were obtained from Caco-2 barrier studies predicting oral/intestinal bioavailability of the tested compounds. The assays were performed by using CacoReady™ ready-to-use kits from ReadyCell according to the manufacturers protocol.

SMILES	pIC50 [1]	logD [2]	Papp [3] [×10⁻⁶ cm/s]	fold more potent compared to Ref. 3 ([1]; DCC-assay, IC50 ratio versus Ref. 3 (A8)) [fold]
CCn1c(C(=O)N[C@@H](CCC(=O)C(=O)NC2CCCCC2)C(=O)Nc2cccn(CC(=O)NC34CC(C3)C4)c2=O)cc2ccccc21 [II-183, (S)-N1-(1-(2-(bicyclo[1.1.1]pentan-1-ylamino)-2-oxoethyl)-2-oxo-1,2-dihydropyridin-3-yl)-N6-cyclohexyl-2-(1-ethyl-1H-indole-2-carboxamido)-5-oxohexanediamide]	6.40 to 7.40	1 to 3	1 to 10	–
CNC(=O)C(=O)CC[C@H](NC(=O)c1csc(Cl)c1)C(=O)Nc1cccn(CC(=O)NC2C3CC4CC(C3)CC2C4)c1=O (stereo partly drawn) [II-27, (S)-2-(5-chlorothiophene-3-carboxamido)-N1-(1-(2-(2-adamantylamino)-2-oxoethyl)-2-oxo-1,2-dihydropyridin-3-yl)-N6-methyl-5-oxohexanediamide]	6.40 to 7.40	1 to 3	1 to 10	–
CNC(=O)C(=O)CC[C@H](NC(=O)c1ccc(Br)s1)C(=O)Nc1cccn(CC(=O)NC2C3CC4CC(C3)CC2C4)c1=O (stereo partly drawn) [II-23, (S)-2-(5-bromothiophene-2-carboxamido)-N1-(1-(2-(2-adamantylamino)-2-oxoethyl)-2-oxo-1,2-dihydropyridin-3-yl)-N6-methyl-5-oxohexanediamide]	6.40 to 7.40	3 to 5	1 to 10	–
CNC(=O)C(=O)CC[C@H](NC(=O)[C@@H]1C[C@H](Br)CN1)C(=O)Nc1cccn(CC(=O)NC2C3CC4CC(C3)CC2C4)c1=O (stereo partly drawn) [II-56, (S)-2-((2S,4S)-4-bromopyrrolidine-2-carboxamido)-N1-(1-(2-(2-adamantylamino)-2-oxoethyl)-2-oxo-1,2-dihydropyridin-3-yl)-N6-methyl-5-oxohexanediamide]	6.40 to 7.40	1 to 3	< 1	–
CNC(=O)C(=O)CC[C@H](NC(=O)c1sc(Br)cc1C)C(=O)Nc1cccn(CC(=O)NC2C3CC4CC(C3)CC2C4)c1=O (stereo partly drawn) [II-21, (S)-2-(5-bromo-3-methylthiophene-2-carboxamido)-N1-(1-(2-(2-adamantylamino)-2-oxoethyl)-2-oxo-1,2-dihydropyridin-3-yl)-N6-methyl-5-oxohexanediamide]	> 7.40	3 to 5	1 to 10	–
CNC(=O)C(=O)CC[C@H](NC(=O)c1cnnn1C)C(=O)Nc1cccn(CC(=O)N[C@@H]2C[C@@H]3CC[C@H]2C3)c1=O [II-157, (S)-N1-(1-(2-((1S,2R,4R)-bicyclo[2.2.1]heptan-2-ylamino)-2-oxoethyl)-2-oxo-1,2-dihydropyridin-3-yl)-N6-methyl-2-(1-methyl-1H-1,2,3-triazole-5-carboxamido)-5-oxohexanediamide]	6.40 to 7.40	< 1	< 1	–
Cc1c(C(=O)N[C@@H](CCC(=O)C(N)=O)C(=O)Nc2cccn(CC(=O)N[C@@H]3C[C@@H]4CC[C@H]3C4)c2=O)oc2ccccc12 [II-149, (S)-N1-(1-(2-((1S,2R,4R)-bicyclo[2.2.1]heptan-2-ylamino)-2-oxoethyl)-2-oxo-1,2-dihydropyridin-3-yl)-2-(3-methylbenzofuran-2-carboxamido)-5-oxohexanediamide]	> 7.40	< 1	1 to 10	–
NC(=O)C(=O)CC[C@H](NC(=O)c1cc(Cl)sc1Cl)C(=O)Nc1cccn(CC(=O)NC2C3CC4CC(C3)CC2C4)c1=O (stereo partly drawn) [II-125, (S)-2-(2,5-dichlorothiophene-3-carboxamido)-N1-(1-(2-(2-adamantylamino)-2-oxoethyl)-2-oxo-1,2-dihydropyridin-3-yl)-5-oxohexanediamide]	6.40 to 7.40	1 to 3	1 to 10	–
CNC(=O)C(=O)CC[C@H](NC(=O)c1oc2ccccc2c1C)C(=O)Nc1cccn(CC(=O)NC2C3CC4CC2CC(C)(C4)C3)c1=O (stereo partly drawn) [II-72, (S)-N1-(1-(2-(5-methyladamantane-2-amino)-2-oxoethyl)-2-oxo-1,2-dihydropyridin-3-yl)-N6-methyl-2-(3-methylbenzofuran-2-carboxamido)-5-oxohexanediamide]	> 7.40	3 to 5	< 1	–
CNC(=O)C(=O)CC[C@H](NC(=O)c1sc(C(F)(F)F)nc1C)C(=O)Nc1cccn(CC(=O)N[C@@H]2C[C@H]3CC[C@@H]2C3)c1=O [II-129, (2S)-N1-(1-(2-((1R,2R,4S)-bicyclo[2.2.1]heptan-2-ylamino)-2-oxoethyl)-2-oxo-1,2-dihydropyridin-3-yl)-N6-methyl-2-(4-methyl-2-(trifluoromethyl)thiazole-5-carboxamido)-5-oxohexanediamide]	6.40 to 7.40	1 to 3	< 1	–
CNC(=O)C(=O)CC[C@H](NC(=O)c1oc2ccccc2c1C)C(=O)Nc1cccn(CC(=O)NC2(C#N)C3CC4CC(C3)CC2C4)c1=O (stereo partly drawn) [II-73, (S)-N1-(1-(2-(2-carbonitrileadamantane-2-amino)-2-oxoethyl)-2-oxo-1,2-dihydropyridin-3-yl)-N6-methyl-2-(3-methylbenzofuran-2-carboxamido)-5-oxohexanediamide]	6.40 to 7.40	1 to 3	< 1	–
CCC(CC)CNC(=O)Cn1cccc(NC(=O)[C@H](CC/C=C/C(=O)OC)NC(=O)c2cncn2C)c1=O [Ref. 2, reference compound]	6.40 to 7.40	–	–	80
CNC(=O)C(=O)CC[C@H](NC(=O)c1cn[nH]n1)C(=O)Nc1cccn(CC(=O)NC2C3CC4CC(C3)CC2C4)c1=O (stereo partly drawn) [II-132, (S)-N1-(1-(2-(2-adamantylamino)-2-oxoethyl)-2-oxo-1,2-dihydropyridin-3-yl)-N6-methyl-5-oxo-2-(1H-1,2,3-triazole-4-carboxamido)hexanediamide]	5.60 to 6.40	–	–	–
